Experimental data: PubChem BioAssay AID1963827 (Molecular Pharmacology Branch, DTP, NCI, 2024)
Several values for one entry are separate records, joined by “and”; a condition that tells them apart may be missing. Identical values can stand only once.

Tested on: 994946-033-R-J1-PDC complex spheroid viability
Experiment: Anticancer human tumor 994946-033-R-J1-PDC patient-derived melanoma cell line growth inhibition [POLQ]
Conditions: for viability, T/C: stronger effect = lower value
Protocol: Multicellular complex tumor spheroid response to Polymerase (POL) inhibitors (novobiocin, ART-558, RP6685) in combination with a variety of drugs and investigational agents in selected tumor cell lines
The POL inhibitors (novobiocin, ART-558, and RP6685) were evaluated both individually and in combination with standard of care and investigational anticancer small molecules within a complex spheroid model of solid tumors. . Complex spheroids include a stromal component modeled by human endothelial cells (HUVEC) and fibroblasts modeled by human mesenchymal stem cells (MSCs). The concentration ranges selected for each drug and investigational agent were based upon clinically achievable concentrations if the clinical Cmax of the agent was known.
Compounds. The drugs and investigational agents: novobiocin (NSC847541), ART-558 (NSC835418), RP-6685 (NSC848927), peposertib (NSC802822), ceralasertib (NSC780249), elimusertib (NSC800525), camonsertib (NSC841442), AZD-1390 (NSC803789), olaparib (NSC753686), talazoparib (NSC767125), rucaparib (NSC756644), sotorasib (NSC818433), MRTX-1133 (NSC836407), SN-38 (NSC673596), topotecan (NSC609699), epotoside (NSC141540), doxorubicin (NSC123127), gemcitabine (NSC613327), 5-fluorouracil (NSC19893), paclitaxel (NSC125973), vemurafenib (NSC761431), MSA-2 (NSC828583), SN-011 (NSC837082), adavosertib (NSC754352), prexasertib (NSC758257), carboplatin (NSC241240) and oxaliplatin (NSC266046), were obtained from the National Cancer Institute (NCI) Developmental Therapeutics Program Chemical Repository (21). The FDA-approved anticancer drug set is available from the Developmental Therapeutics Program at https://dtp.cancer.gov/organization/dscb/obtaining/. […] The stock solutions were prepared in dimethyl sulfoxide (DMSO, Sigma-Aldrich, St. Louis, MO, cat. D2650), except for the platinum compounds which were prepared in saline (Quality Biological, Gaithersburg, MD, cat. 114-055-101), at 800-fold the tested concentration and stored at -70 degrees C prior to their use. All drugs and investigational agents were tested over a range starting from a high concentration at or near the clinical Cmax and decreasing in half-log increments. If the clinical Cmax for an agent had not been determined, the highest concentration tested was 10 microM, except for SN-38, which was tested at a high concentration of 1 microM.
Cell Culture. All cells were maintained in an incubator at 37 degrees C and 5% CO2 with 95% humidity. The PDC lines were cultured according to standard operating procedures established by the NCI PDMR (https://pdmr.cancer.gov). Table 3 of the manuscript, lists the cell lines along with the number of the three cell types plated to form the mct-spheroids and media for tumor cell growth. After thawing, all PDC lines, except 997537-175-T-J1-PDC and 415267-285-R-J2-PDC, were cultured in Matrigel-coated flasks prepared with a working solution of 1X Ham's F-12 nutrient mix, without supplementation (Thermo Fisher Scientific, cat. 11765054), 100 U/mL penicillin-streptomycin (Thermo Fisher Scientific, cat. 15140122), and 2.5% Matrigel (Corning Inc., Corning, NY, cat. 354248) for the first three passages. The two PDC lines 997537-175-T-J1-PDC and 415267-285-R-J2-PDC were cultured on uncoated flasks. The 857933-349-R-J2-PDC line was cultured in 6C/Colon 1B media containing advanced DMEM/F-12 (Thermo Fisher Scientific, cat. 12634028), 10 mM HEPES (Thermo Fisher Scientific, cat. 15630080), 1X GlutaMAX supplement (Thermo Fisher Scientific, cat. 35050061), 0.1 mg/mL primocin (InvivoGen, San Diego, CA, cat. ant-pm-2), 10% defined fetal bovine serum, heat inactivated (HyClone Laboratories Inc., Logan, UT, cat. SH30070.03HI), 50% L-WRN conditioned media (ATCC, cat. CRL-3276), 1.25 mM N-Acetyl-L-cysteine (Sigma-Aldrich, cat. A9165), 10 mM nicotinamide (Sigma-Aldrich, cat. N0636), 1X B-27 supplement (Thermo Fisher Scientific, cat. 17504044), 1X N-2 supplement (Thermo Fisher Scientific, cat. […]
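Further: spheroids exposed to drugs for 7 days.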
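Wherever viability, T/C is given: 100% = DMSO vehicle treated spheroids.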

CC1COCCN1c1cc(C2(S(C)(=N)=O)CC2)nc(-c2ccnc3[nH]ccc23)n1 (configuration not stated) + COC1C(OC(N)=O)C(O)C(Oc2ccc3c(O)c(NC(=O)c4ccc(O)c(CC=C(C)C)c4)c(=O)oc3c2C)OC1(C)C
IC50 (curve of first compound, second compound 0.0316 µM): 4.13 µM
IC50 (curve of first compound, second compound 0.1 µM): 1.39 µM
IC50 (curve of first compound, second compound 0.316 µM): 4.03 µM
IC50 (curve of first compound, second compound 1 µM): 8.12 µM
IC50 (curve of first compound, second compound 3.16 µM): > 10 µM
IC50 (curve of first compound, second compound 10 µM): 3.19 µM
viability, T/C (second compound 0.0316 µM, first compound 0.0316 µM): 134%
viability, T/C (second compound 0.0316 µM, first compound 0.1 µM): 95.5%
viability, T/C (second compound 0.0316 µM, first compound 0.316 µM): 99.4%
viability, T/C (second compound 0.0316 µM, first compound 1 µM): 45.6%
viability, T/C (second compound 0.0316 µM, first compound 3.16 µM): 61.9%
viability, T/C (second compound 0.0316 µM, first compound 10 µM): 41.1%
viability, T/C (second compound 0.1 µM, first compound 0.0316 µM): 113%
viability, T/C (second compound 0.1 µM, first compound 0.1 µM): 101%
viability, T/C (second compound 0.1 µM, first compound 0.316 µM): 68.2%
viability, T/C (second compound 0.1 µM, first compound 1 µM): 65.3%
viability, T/C (second compound 0.1 µM, first compound 3.16 µM): 29.2%
viability, T/C (second compound 0.1 µM, first compound 10 µM): 36.1%
viability, T/C (second compound 0.316 µM, first compound 0.0316 µM): 78.1%
viability, T/C (second compound 0.316 µM, first compound 0.1 µM): 116%
viability, T/C (second compound 0.316 µM, first compound 0.316 µM): 92.4%
viability, T/C (second compound 0.316 µM, first compound 1 µM): 63.9%
viability, T/C (second compound 0.316 µM, first compound 3.16 µM): 61.5%
viability, T/C (second compound 0.316 µM, first compound 10 µM): 34.1%
viability, T/C (second compound 1 µM, first compound 0.0316 µM): 138%
viability, T/C (second compound 1 µM, first compound 0.1 µM): 105%
viability, T/C (second compound 1 µM, first compound 0.316 µM): 80.8%
viability, T/C (second compound 1 µM, first compound 1 µM): 68.9%
viability, T/C (second compound 1 µM, first compound 3.16 µM): 52.9%
viability, T/C (second compound 1 µM, first compound 10 µM): 49.6%
viability, T/C (second compound 3.16 µM, first compound 0.0316 µM): 101%
viability, T/C (second compound 3.16 µM, first compound 0.1 µM): 90.5%
viability, T/C (second compound 3.16 µM, first compound 0.316 µM): 80.5%
viability, T/C (second compound 3.16 µM, first compound 1 µM): 75%
viability, T/C (second compound 3.16 µM, first compound 3.16 µM): 54.6%
viability, T/C (second compound 3.16 µM, first compound 10 µM): 57.9%
viability, T/C (second compound 10 µM, first compound 0.0316 µM): 103%
viability, T/C (second compound 10 µM, first compound 0.1 µM): 85.4%
viability, T/C (second compound 10 µM, first compound 0.316 µM): 99%
viability, T/C (second compound 10 µM, first compound 1 µM): 102%
viability, T/C (second compound 10 µM, first compound 3.16 µM): 50%
viability, T/C (second compound 10 µM, first compound 10 µM): 37%

C#Cc1c(F)ccc2cc(O)cc(-c3ncc4c(N5CC6CCC(C5)N6)nc(OCC56CCCN5CC(F)C6)nc4c3F)c12 (configuration not stated)
viability, T/C (compound 0.0316 µM): 78.6% and 88.4% and 92.6%
viability, T/C (compound 0.1 µM): 114% and 85.9% and 77.6%
viability, T/C (compound 0.316 µM): 100% and 90.5% and 92%
viability, T/C (compound 1 µM): 85.9% and 83.8% and 79.2%
viability, T/C (compound 3.16 µM): 77.8% and 81.5% and 90.7%
viability, T/C (compound 10 µM): 12.6% and 21.5% and 6.41%
IC50 (curve of compound): 5.08 µM and 5.79 µM and 5.34 µM

O=c1[nH]cc(F)c(=O)[nH]1
viability, T/C (compound 0.0316 µM): 115% and 112% and 96.8%
viability, T/C (compound 0.1 µM): 95.1% and 107% and 103%
viability, T/C (compound 0.316 µM): 71.1% and 97.4% and 103%
viability, T/C (compound 1 µM): 63.1% and 67.9% and 60.2%
viability, T/C (compound 3.16 µM): 50.7% and 73.6% and 64%
viability, T/C (compound 10 µM): 45.7% and 47.6% and 54.8%
IC50 (curve of compound): 4.22 µM and > 10 µM

COc1cc(C2c3cc4c(cc3C(OC3OC5COC(C)OC5C(O)C3O)C3COC(=O)C23)OCO4)cc(OC)c1O (configuration not stated)
viability, T/C (compound 0.0316 µM): 92.1% and 89.8% and 87.4%
viability, T/C (compound 0.1 µM): 56.1% and 74.7% and 56.7%
viability, T/C (compound 0.316 µM): 42.6% and 37.3% and 54.9%
viability, T/C (compound 1 µM): 36.4% and 29.4% and 38.1%
viability, T/C (compound 3.16 µM): 15% and 14.1% and 14.8%
viability, T/C (compound 10 µM): 5.65% and 9.75% and 6.75%
IC50 (curve of compound): 0.212 µM and 0.24 µM and 0.313 µM

CCc1cc2c(N3CCc4c(cc(Cn5ccnc5)cc4-c4cn(C)nc4C(F)(F)F)C3=O)ccnc2c(OC)n1
viability, T/C (compound 0.0316 µM): 89.4% and 91.8% and 73.3%
viability, T/C (compound 0.1 µM): 85.4% and 86.5% and 82.3%
viability, T/C (compound 0.316 µM): 85.9% and 66.4% and 74.3%
viability, T/C (compound 1 µM): 88.4% and 84% and 76.2%
viability, T/C (compound 3.16 µM): 80.5% and 83.7% and 102%
viability, T/C (compound 10 µM): 76% and 62.5% and 43%
IC50 (curve of compound): > 10 µM and 8.11 µM

CCc1cc2c(N3CCc4c(cc(Cn5ccnc5)cc4-c4cn(C)nc4C(F)(F)F)C3=O)cc(C)nc2c(OC)n1
viability, T/C (compound 0.0316 µM): 79% and 66% and 74.7%
viability, T/C (compound 0.1 µM): 78.9% and 75.4% and 75.9%
viability, T/C (compound 0.316 µM): 90.3% and 75% and 87.3%
viability, T/C (compound 1 µM): 93.3% and 71.1% and 84.3%
viability, T/C (compound 3.16 µM): 74.8% and 70.8% and 89.7%
viability, T/C (compound 10 µM): 72% and 68.3% and 85.2%
IC50 (curve of compound): > 10 µM
